Patent publication US20070049564A1 (Wyeth, priority 2005, published 2007)
In brackets after ≈: the same amount, converted by molar mass. Read-outs that look alike come from different tables or passages of the source.

Experiments:
Salmonella spp. GC 566 = test: MIC, broth microdilution; details: Salmonella
Protocol: Antimicrobial susceptibility testing. The in vitro activities of the antibiotics are determined by the broth microdilution method as recommended by the National Committee for Clinical Laboratory Standards (NCCLS) (1). Mueller-Hinton II broth (MHBII)(BBL Cockeysville, Md.) is the medium employed in the testing procedures. Microtiter plates containing serial dilutions of each antimicrobial agent are inoculated with each organism to yield the appropriate density (10^5 CFU/ml) in a 100 μl final volume. The plates are incubated for 18-22 hours at 35° C. in ambient air.
Presented in Tables I-XIII are representative compounds of Formula I which were evaluated against a panel of 40 selected gram-positive and gram-negative bacteria strains by pre-incubation in water, mouse serum or human serum. Representative compounds were first incubated in mouse serum for an hour prior to the in vitro testing against a panel of selected gram-positive and gram-negative bacteria strains. All compounds were also pre-incubated in water for an hour prior to testing as control. Representative compounds of Formula I were incubated in human serum prior to MIC determination.

S. cholerasius GC 1355 = test: MIC, broth microdilution
Salmonella spp. GC 235 = test: MIC, broth microdilution; details: Salmonella
E. coli #311 = test: In vivo activity (oral, iv; ED50) against E. coli in mice; details: Escherichia coli
Text: . […] Smith and E. Coli #311 in mammals.
Results of the tests (MIC, oral and IV) are list in Table 7.

[1] = SPP.GC566, Salmonella spp. GC 566, Mouse Serum pre-incubation
[2] = SPP.GC566, Salmonella spp. GC 566, Water pre-incubation
[3] = S. cholerasius GC 1355, Mouse Serum pre-incubation
[4] = S. cholerasius GC 1355, Water pre-incubation
[5] = SPP.GC235, Salmonella spp. GC 235, Mouse Serum pre-incubation
[6] = SPP.GC235, Salmonella spp. GC 235, Water pre-incubation
[7] = single intravenous dose (SIV), read-out: ED50 E. coli #311 SIV
[8] = single oral dose (SOD), read-out: ED50 E. coli #311 SOD

Compound	MIC (Salmonella spp. GC 566; [1]) [µg/mL]	MIC (Salmonella spp. GC 566; [2]) [µg/mL]	MIC (S. cholerasius GC 1355; [3]) [µg/mL]	MIC (S. cholerasius GC 1355; [4]) [µg/mL]	MIC (Salmonella spp. GC 235; [5]) [µg/mL]	MIC (Salmonella spp. GC 235; [6]) [µg/mL]	ED50 (E. coli #311; [7]) [mg/kg]	ED50 (E. coli #311; [8]) [mg/kg]	other results
CCCN(CC(=O)Nc1cc(N(C)C)c2c(c1O)C(=O)C1=C(O)[C@]3(O)C(=O)C(C(N)=O)=C(O)C(N(C)C)C3CC1C2)C(=O)OCc1oc(=O)oc1-c1ccccc1 (stereo in doubt) [Example 110, (2-oxo-5-phenyl-1,3-dioxol-4-yl)methyl 2-{[(7R,10aS)-9-(aminocarbonyl)-4,7-bis(dimethylamino)-1,8,10a,11-tetrahydroxy-10,12-dioxo-5,5a,6,6a,7,10,10a,12-octahydrotetracen-2-yl]amino}-2-oxoethyl(propyl)carbamate]	–	–	–	–	–	–	–	–	MIC (Salmonella spp. GC 566; SPP.GC566, pre-incubation in mouse serum): 16 µg/mL (≈ 20.3 µM); MIC (Salmonella spp. GC 566; SPP.GC566, pre-incubation in water): 32 µg/mL (≈ 40.5 µM); MIC (S. cholerasius GC 1355; pre-incubation in mouse serum): > 64 µg/mL; MIC (S. cholerasius GC 1355; pre-incubation in water): > 64 µg/mL; MIC (Salmonella spp. GC 235; SPP.GC235, pre-incubation in mouse serum): 4 µg/mL (≈ 5.06 µM); MIC (Salmonella spp. GC 235; SPP.GC235, pre-incubation in water): 8 µg/mL (≈ 10.1 µM)
CCCCN(CC(=O)Nc1cc(N(C)C)c2c(c1O)C(=O)C1=C(O)[C@]3(O)C(=O)C(C(N)=O)=C(O)[C@@H](N(C)C)C3CC1C2)C(=O)OCOC(=O)c1ccc(OC)cc1 (stereo partly drawn) [Example 2, ({[(2-{[(7S,10aS)-9-(aminocarbonyl)-4,7-bis(dimethylamino)-1,8,10a,11-tetrahydroxy-10,12-dioxo-5,5a,6,6a,7,10,10a,12-octahydrotetracen-2-yl]amino}-2-oxoethyl)(butyl)amino]carbonyl}oxy)methyl 4-methoxybenzoate]	8 (≈ 10.1 µM)	> 64	> 64	> 64	8 (≈ 10.1 µM)	> 64	–	–	–
CCCCN(CC(=O)Nc1cc(N(C)C)c2c(c1O)C(=O)C1=C(O)[C@]3(O)C(=O)C(C(N)=O)=C(O)[C@@H](N(C)C)C3CC1C2)C(=O)OCOC(=O)c1ccc(C)cc1 (stereo partly drawn) [Example 3, ({[(2-{[(7S,10aS)-9-(aminocarbonyl)-4,7-bis(dimethylamino)-1,8,10a,11-tetrahydroxy-10,12-dioxo-5,5a,6,6a,7,10,10a,12-octahydrotetracen-2-yl]amino}-2-oxoethyl)(butyl)amino]carbonyl}oxy)methyl 4-methylbenzoate]	4 (≈ 5.14 µM)	> 64	16 (≈ 20.6 µM)	> 64	2 (≈ 2.57 µM)	> 64	–	–	–
CCCN(CC(=O)Nc1cc(N(C)C)c2c(c1O)C(=O)C1=C(O)[C@]3(O)C(=O)C(C(N)=O)=C(O)[C@@H](N(C)C)[C@@H]3C[C@@H]1C2)C(=O)OCOC(=O)c1ccc(OC)cc1 [Example 6, ({[(2-{[(5aR,6aS,7S,10aS)-9-(aminocarbonyl)-4,7-bis(dimethylamino)-1,8,10a,11-tetrahydroxy-10,12-dioxo-5,5a,6,6a,7,10,10a,12-octahydrotetracen-2-yl]amino}-2-oxoethyl)(propyl)amino]carbonyl}oxy)methyl 4-methoxybenzoate]	4 (≈ 5.13 µM)	64 (≈ 82.1 µM)	16 (≈ 20.5 µM)	> 64	2 (≈ 2.56 µM)	16 (≈ 20.5 µM)	–	–	–
CCCN(CC(=O)Nc1cc(N(C)C)c2c(c1O)C(=O)C1=C(O)[C@]3(O)C(=O)C(C(N)=O)=C(O)[C@@H](N(C)C)[C@@H]3C[C@@H]1C2)C(=O)OCOC(=O)C1CCC1 [Example 7, ({[(2-{[(5aR,6aS,7S,10aS)-9-(aminocarbonyl)-4,7-bis(dimethylamino)-1,8,10a,11-tetrahydroxy-10,12-dioxo-5,5a,6,6a,7,10,10a,12-octahydrotetracen-2-yl]amino}-2-oxoethyl)(propyl)amino]carbonyl}oxy)methyl cyclobutanecarboxylate]	1 (≈ 1.37 µM)	16 (≈ 22 µM)	16 (≈ 22 µM)	> 64	2 (≈ 2.75 µM)	8 (≈ 11 µM)	–	–	–
CCCN(CC(=O)Nc1cc(N(C)C)c2c(c1O)C(=O)C1=C(O)[C@]3(O)C(=O)C(C(N)=O)=C(O)[C@@H](N(C)C)[C@@H]3C[C@@H]1C2)C(=O)OCOC(=O)c1ccc(F)cc1 [Example 8, ({[(2-{[(5aR,6aS,7S,10aS)-9-(aminocarbonyl)-4,7-bis(dimethylamino)-1,8,10a,11-tetrahydroxy-10,12-dioxo-5,5a,6,6a,7,10,10a,12-octahydrotetracen-2-yl]amino}-2-oxoethyl)(propyl)amino]carbonyl}oxy)methyl 4-fluorobenzoate]	4 (≈ 5.21 µM)	> 64	32 (≈ 41.7 µM)	> 64	4 (≈ 5.21 µM)	64 (≈ 83.4 µM)	–	–	–
CN(C)c1cc(NC(=O)CN(C(=O)OCOC(=O)c2ccc(C(C)(C)C)cc2)C(C)(C)C)c(O)c2c1C[C@H]1C[C@H]3[C@H](N(C)C)C(O)=C(C(N)=O)C(=O)[C@@]3(O)C(O)=C1C2=O [Example 43, ({[(2-{[(5aR,6aS,7S,10aS)-9-(aminocarbonyl)-4,7-bis(dimethylamino)-1,8,10a,11-tetrahydroxy-10,12-dioxo-5,5a,6,6a,7,10,10a,12-octahydrotetracen-2-yl]amino}-2-oxoethyl)(tert-butyl)amino]carbonyl}oxy)methyl 4-tert-butylbenzoate]	–	–	–	–	–	–	3.6	60.4	–
CN(C)c1cc(NC(=O)CN(C(=O)OCOC(=O)C2CCCC2)C(C)(C)C)c(O)c2c1C[C@H]1C[C@H]3[C@H](N(C)C)C(O)=C(C(N)=O)C(=O)[C@@]3(O)C(O)=C1C2=O [Example 46, ({[(2-{[(5aR,6aS,7S,10aS)-9-(aminocarbonyl)-4,7-bis(dimethylamino)-1,8,10a,11-tetrahydroxy-10,12-dioxo-5,5a,6,6a,7,10,10a,12-octahydrotetracen-2-yl]amino}-2-oxoethyl)(tert-butyl)amino]carbonyl}oxy)methyl cyclopentanecarboxylate]	–	–	–	–	–	–	2.16	29.2	–
CCCCOC(=O)N(CC(=O)Nc1cc(N(C)C)c2c(c1O)C(=O)C1=C(O)[C@]3(O)C(=O)C(C(N)=O)=C(O)[C@@H](N(C)C)[C@@H]3C[C@@H]1C2)C(C)(C)C [Example 58, butyl 2-{[(5aR,6aS,7S,10aS)-9-(aminocarbonyl)-4,7-bis(dimethylamino)-1,8,10a,11-tetrahydroxy-10,12-dioxo-5,5a,6,6a,7,10,10a,12-octahydrotetracen-2-yl]amino}-2-oxoethyl(tert-butyl)carbamate]	–	–	–	–	–	–	> 8	> 32	–
CC(C)COC(=O)N(CC(=O)Nc1cc(N(C)C)c2c(c1O)C(=O)C1=C(O)[C@]3(O)C(=O)C(C(N)=O)=C(O)[C@@H](N(C)C)[C@@H]3C[C@@H]1C2)C(C)(C)C [Example 59, isobutyl 2-{[(5aR,6aS,7S,10aS)-9-(aminocarbonyl)-4,7-bis(dimethylamino)-1,8,10a,11-tetrahydroxy-10,12-dioxo-5,5a,6,6a,7,10,10a,12-octahydrotetracen-2-yl]amino}-2-oxoethyl(tert-butyl)carbamate]	–	–	–	–	–	–	> 8	> 32	–
COC(=O)N(CC(=O)Nc1cc(N(C)C)c2c(c1O)C(=O)C1=C(O)[C@]3(O)C(=O)C(C(N)=O)=C(O)[C@@H](N(C)C)[C@@H]3C[C@@H]1C2)C(C)(C)C [Example 60, methyl 2-{[(5aR,6aS,7S,10aS)-9-(aminocarbonyl)-4,7-bis(dimethylamino)-1,8,10a,11-tetrahydroxy-10,12-dioxo-5,5a,6,6a,7,10,10a,12-octahydrotetracen-2-yl]amino}-2-oxoethyl(tert-butyl)carbamate]	–	–	–	–	–	–	> 8	> 32	–
